Consider 17 compounds from PubChem BioAssay (NCI).

The structures appear in SMILES notation. Several values for one entry are separate records, joined by “and”; a condition that tells them apart may be missing. Equal values may be shown once.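 Following 48 hours of exposure in 96-well plates, responses at five concentrations were used to interpolate endpoints linearly. GI50 is the concentration that inhibits growth by half. TGI: total growth inhibition.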

Common to all, as to assay: NCI anticancer screen, dose series, 48 h
Assay [1] deals with EKVX NSCLC.
Assay [2] concerns LOX IMVI melanoma.
Assay [3] has as its system HS 578T breast.
The subject of assay [4] is UACC-257 melanoma.
For assay [5], the system named is TK-10 renal.
Assay [6] has as its system SF-268 CNS.
Assay [7] deals with HOP-62 NSCLC.
Assay [8] concerns K-562 leukemia.
Assay [9] deals with HCT-116 colon.
For assay [10], the system named is HL-60(TB) leukemia.

Consider `COc1ccc(-c2cc(=O)c3ccc(C)nc3[nH]2)cc1`, for which the TGI in assay [1], in assay [2], in assay [3], in assay [4], in assay [5] and in assay [6] was > 100 µM throughout. Also, the TGI in [7], in assay [8], in assay [9] and in assay [10] was > 100 µM throughout. In addition, the GI50 in assay [9] and in [10] was > 100 µM in each case.
For `S=C(Nc1ccc(Br)cc1)Nc1ccc(Br)cc1`, the GI50 in [1] is 3.72 µM; in assay [2], 5.29 µM; in assay [3] it was 85 µM; in assay [4], 7.86 µM; in assay [5] it was 5.38 µM; in assay [6] it was 67.8 µM. The GI50 in [7] was 83.9 µM; in assay [8] it was 3.62 µM; in assay [9] it was 4.21 µM; in [10], 5.79 µM. Further, the TGI in assay [1], in assay [2], in assay [3], in assay [4], in assay [5] and in assay [6] was > 100 µM each time. In addition, the TGI in assay [7], in assay [8], in assay [9] and in [10] was > 100 µM each time.
As for `COC(=O)CCc1c[nH]c2ccc(N(CCCl)CCCl)cc12`, the GI50 in [1] was 21.8 µM; in assay [2], 1.39 µM; in [3], 15.1 µM; in [4], 5.21 µM; in assay [5], 4.82 µM; in assay [6], 1.25 µM. The GI50 was 1.04 µM in assay [7], 9.68 µM in assay [8], 2.18 µM in assay [9] and 0.429 µM in assay [10]. Also, the TGI in [1] is > 77.7 µM; in assay [2], > 36.2 µM; in [3], 50.1 µM; in [4], 34.3 µM; in [5] it was 66 µM; in assay [6], 30 µM. The TGI in assay [7] is 16.5 µM; in assay [8], > 100 µM; in assay [9] it was > 58.9 µM; in [10], > 100 µM.
As for `CC(C)(C)C(=O)c1c(C(F)(F)F)n([O-])c2ccccc2[n+]1=O`, the GI50 in assay [1] was 0.757 µM; in assay [2], 0.396 µM; in assay [3] it was 0.185 µM; in assay [4] it was 1.46 µM; in assay [5] it was 0.896 µM; in [6] it was 0.549 µM. Further, the GI50 was 1.47 µM in assay [7], 0.757 µM in assay [8], 0.619 µM in [9] and 0.204 µM in assay [10]. Moreover, the TGI in assay [1] is 2.3 µM; in assay [2], 1.7 µM; in assay [3], 0.728 µM; in [4], 5.57 µM; in assay [5], 2.18 µM; in assay [6] it was 1.75 µM. In addition, the TGI was determined as 2.94 µM in [7], 2.38 µM in assay [8], 1.59 µM in [9] and 1.08 µM in assay [10].
For `Cc1ccc(C)c2c1C(O)(C#Cc1ccccc1)c1ccccc1C2(O)C#Cc1ccccc1` (configuration not stated), the GI50 in assay [1] was 3.36 µM; in assay [2] it was 3.44 µM; in [3], 3.4 µM; in assay [4], 2.54 µM; in assay [5] it was 3.68 µM; in assay [6] it was 3.65 µM. For the same compound, the GI50 in assay [7] was 5.88 µM; in assay [8] it was 4.4 µM; in assay [9] it was 3.04 µM; in [10], 4.04 µM. In addition, the TGI is > 29 µM in assay [1]; > 64.2 µM in assay [2]; > 100 µM in assay [3]; 6.6 µM in [4]; > 100 µM in assay [5]; > 100 µM in [6]. Further, the TGI in assay [7], in assay [8], in [9] and in [10] was > 100 µM throughout.
Consider `C=C1C(=O)O[C@H]2C[C@@H]1CC/C(C)=C/CC/C(C)=C/CC[C@H]2C`, for which the GI50 in assay [1] is 19.7 µM; in assay [2] it was 5.56 µM; in [3], 27.3 µM; in assay [4] it was 11.5 µM; in assay [5], 20 µM; in assay [6], 19.3 µM. Also, the GI50 in [7] was 12.5 µM; in [8], 14 µM; in assay [9] it was 7.82 µM; in assay [10], 7.14 µM. Also, the TGI in assay [1] is 42.8 µM; in [2] it was 12.3 µM; in assay [3], > 78 µM; in assay [4], 29.4 µM; in [5], 37.7 µM; in assay [6] it was 46.1 µM. Moreover, the TGI was 27.1 µM in assay [7], > 57.1 µM in assay [8], 21.3 µM in assay [9] and 16.2 µM in assay [10].
For `COc1ccc(S(=O)(=O)N2CC(C)(C)CN(S(=O)(=O)c3ccc(OC)cc3)C2C(=O)NO)cc1`, the GI50 in assay [1] was 12.3 µM; in assay [2], > 11.1 µM; in assay [3], > 6.77 µM; in [4] it was > 19.1 µM; in assay [5] it was 19.5 µM; in assay [6], > 20 µM. In addition, the GI50 in assay [7] is > 20 µM; in assay [8] it was > 20 µM; in assay [9], > 20 µM; in [10], > 10.6 µM. In addition, the TGI in assay [1], in assay [2], in assay [3], in assay [4], in [5] and in assay [6] was > 20 µM throughout. Besides, the TGI in [7], in assay [8], in [9] and in assay [10] was > 20 µM throughout.
In the case of `C#CCOc1cccc(-c2ncnc3cc(NC(=O)CCl)ccc23)c1`, the GI50 in [1] is 2.31 µM; in assay [2] it was 0.0385 µM; in [3], 1.92 µM; in assay [4] it was 1.64 µM; in assay [5] it was 1.26 µM; in [6] it was 0.669 µM. In addition, the GI50 was 2.36 µM in assay [7], 0.0612 µM in assay [8], 0.034 µM in assay [9] and 0.536 µM in assay [10]. The TGI in [1] was found to be 7.64 µM; in assay [2], 1.34 µM; in assay [3], 14.5 µM; in assay [4] it was 5.19 µM; in assay [5], 2.81 µM; in [6], 2.94 µM. Also, the TGI was determined as 7.18 µM in assay [7], 1.48 µM in [9] and 4.36 µM in assay [10].
In the case of `COc1ccc(C(=O)/C=C/c2ccc(C)cc2)cc1OC`, the GI50 in [1] is 18.4 µM; in assay [2], 13 µM; in assay [3], 12.5 µM; in assay [4] it was 16.2 µM; in assay [5] it was 16.4 µM; in [6], 11.7 µM. Moreover, the GI50 was 14.6 µM in assay [7], 8.31 µM in [8], 4.69 µM in assay [9] and 23.2 µM in assay [10]. Also, the TGI in assay [1] came out at 42.9 µM; in assay [2], 25.6 µM; in assay [3] it was 30.3 µM; in assay [4] it was 30.3 µM; in assay [5], 37.7 µM; in assay [6], 24.4 µM. Besides, the TGI in assay [7] was determined as 27.8 µM; in [8] it was 50.2 µM; in assay [9], 17.7 µM; in [10] it was 62.4 µM.
For `C=C(c1ccc2nc(NC(=O)OC)[nH]c2c1)c1cccs1`, the TGI was > 100 µM in [1]; > 52.6 µM in assay [2]; > 100 µM in [3]; > 100 µM in assay [4]; > 100 µM in assay [5]; > 100 µM in assay [6]. The TGI was > 77.4 µM in assay [7], > 35.5 µM in [8], > 45.2 µM in assay [9] and > 32.7 µM in assay [10].
As to `Cc1ccc(S(=O)(=O)NC(=O)C2C(=O)CC3(CCCCC3)CC2=O)cc1`, the TGI in assay [1] was 61.9 µM; in [2] it was > 100 µM; in assay [3], > 100 µM; in assay [4] it was 78.1 µM; in [5], 62.1 µM; in assay [6], > 100 µM. For the same compound, the TGI was > 100 µM in assay [7], > 100 µM in assay [8], 74.4 µM in assay [9] and 65.8 µM in assay [10].
For `FC(F)c1nc2ccccc2n1-c1nc(N2CCOCC2)nc(N2CCOCC2)n1`, the GI50 in [1] is 0.445 µM; in [2], 0.376 µM and 0.491 µM; in assay [3] it was 0.143 µM and 0.0684 µM; in assay [4], 0.264 µM and 0.25 µM; in assay [5], 0.129 µM and 0.205 µM; in [6] it was 0.361 µM and 0.6 µM. Besides, the GI50 in [7] is 0.495 µM and 1.1 µM; in assay [8], 4.09 µM and 5.15 µM; in assay [9], 0.618 µM and 0.734 µM; in assay [10] it was 0.153 µM and 0.351 µM. For the same compound, the TGI in [1] was 4.88 µM; in [3] it was 0.995 µM and 0.773 µM; in [4], 3.09 µM and 3.64 µM; in assay [5], 0.907 µM and 1.58 µM; in [6], > 100 µM; in assay [7], 5.36 µM and 15.7 µM. The TGI in assay [8], in assay [9] and in assay [10] was > 100 µM each time.
Regarding `Oc1[nH]c2ccccc2c1N=Nc1ccccn1`, the TGI in assay [1] was > 100 µM; in assay [2] it was > 100 µM; in assay [3] it was > 100 µM; in assay [4], > 100 µM; in assay [5], 53.7 µM; in assay [6], > 100 µM. The TGI is 91.7 µM in assay [7], > 100 µM in [8], 25.2 µM in assay [9] and 86.5 µM in [10].
For the compound `COc1cccc(-c2cc(=O)c3cc(OC)ccc3[nH]2)c1`, the GI50 was 5.85 µM in assay [1]; 0.0624 µM in assay [2]; 0.0325 µM in assay [4]; 0.626 µM in assay [6]; 0.401 µM in assay [7]; 0.0288 µM in assay [8]. Also, the figures for the GI50 in [9] and in assay [10] were 0.0541 µM and 0.0194 µM, respectively. The TGI in assay [1] was > 100 µM; in [3], 0.885 µM; in [4], > 100 µM; in assay [5], 84.9 µM; in assay [6], 24.2 µM; in assay [7] it was 29.7 µM. The TGI in assay [8] was 0.393 µM; in assay [9], 22.6 µM; in [10], 0.405 µM and 0.0536 µM.
As to `COC(=O)c1c2c(c[n+]([O-])c1C)C(=O)C=CC2=O`, the GI50 was 1.83 µM in [1]; 1.96 µM in [2]; 2.17 µM in assay [3]; 2.26 µM in assay [4]; 2.99 µM in assay [5]; 2.83 µM in assay [6]. Also, the GI50 was 2.6 µM in assay [7], 2.51 µM in [8], 2.19 µM in [9] and 2.13 µM in assay [10]. Besides, the TGI was determined as 4.25 µM in assay [1]; 4.18 µM in assay [2]; 6.04 µM in assay [3]; 5.54 µM in assay [4]; 9.57 µM in assay [5]; 10.7 µM in assay [6]. Also, the TGI in [7] is 7.71 µM; in [8], > 100 µM; in assay [9], 5.18 µM; in [10], 5.75 µM.
Regarding `CC(C(=O)c1ccccc1)C(c1ccccc1)N1CCOCC1` (configuration not stated), the TGI in assay [1], in assay [2], in assay [3], in [4], in assay [5] and in assay [6] was > 100 µM in each case. In addition, the TGI in assay [7], in assay [8], in assay [9] and in [10] was > 100 µM in each case.
For `CC(C)CCC(=O)c1ccoc1`, the TGI in [1], in assay [2], in [3], in [4], in assay [5] and in assay [6] was > 100 µM in each case. Besides, the TGI in [7], in [8], in assay [9] and in [10] was > 100 µM in each case.
